Laboratory results: ChEMBL document CHEMBL4184252, “Synthesis of novel multivalent fluorescent inhibitors with high affinity to prostate cancer and their biological evaluation” (Bioorg Med Chem Lett, 2018)

Legend:
[1] = Drug distribution in heart of BALB/c nude mouse xenografted with human 22Rv1 cells at 10 nmol, iv measured 1 to 24 hrs after post dose by fluorescence imaging method; type: ADME, organism-based; settings: in vivo
[2] = biological target: Glutamate carboxypeptidase 2 (Homo sapiens, UniProt Q04609); experiment: Inhibition of PSMA in human LNCaP cell lysates incubated for 2 hrs in presence of N-acetylaspartylglutamate by Amplex red glutamic acid/glutamate oxidase assay
[3] = Drug distribution in lung of BALB/c nude mouse xenografted with human 22Rv1 cells at 10 nmol, iv measured 1 to 24 hrs after post dose by fluorescence imaging method; type: ADME, organism-based; settings: in vivo
[4] = Drug distribution in spleen of BALB/c nude mouse xenografted with human 22Rv1 cells at 10 nmol, iv measured 1 to 24 hrs after post dose by fluorescence imaging method; type: ADME, organism-based; settings: in vivo
[5] = Drug distribution in muscle of BALB/c nude mouse xenografted with human 22Rv1 cells at 10 nmol, iv measured 1 to 24 hrs after post dose by fluorescence imaging method; type: ADME, organism-based, Muscle tissue; settings: in vivo
[6] = Drug distribution in tumor of BALB/c nude mouse xenografted with human 22Rv1 cells at 10 nmol, iv measured 1 to 24 hrs after post dose by fluorescence imaging method; type: ADME, organism-based, Neoplasm; settings: in vivo
[7] = Drug distribution in liver of BALB/c nude mouse xenografted with human 22Rv1 cells at 10 nmol, iv measured 1 to 24 hrs after post dose by fluorescence imaging method; type: ADME, organism-based; settings: in vivo
[8] = Drug distribution in tumor of BALB/c nude mouse xenografted with human 22Rv1 cells at 10 nmol, iv measured 1 to 24 hrs after post dose co-treated with 1 umol DCIBZL by fluorescence imaging method; type: ADME, organism-based, Neoplasm; settings: in vivo
[9] = Drug distribution in liver of BALB/c nude mouse xenografted with human 22Rv1 cells at 10 nmol, iv measured 1 to 24 hrs after post dose co-treated with 1 umol DCIBZL by fluorescence imaging method; type: ADME, organism-based; settings: in vivo

Chain of Glutamate carboxypeptidase 2 (Q04609 whole entry): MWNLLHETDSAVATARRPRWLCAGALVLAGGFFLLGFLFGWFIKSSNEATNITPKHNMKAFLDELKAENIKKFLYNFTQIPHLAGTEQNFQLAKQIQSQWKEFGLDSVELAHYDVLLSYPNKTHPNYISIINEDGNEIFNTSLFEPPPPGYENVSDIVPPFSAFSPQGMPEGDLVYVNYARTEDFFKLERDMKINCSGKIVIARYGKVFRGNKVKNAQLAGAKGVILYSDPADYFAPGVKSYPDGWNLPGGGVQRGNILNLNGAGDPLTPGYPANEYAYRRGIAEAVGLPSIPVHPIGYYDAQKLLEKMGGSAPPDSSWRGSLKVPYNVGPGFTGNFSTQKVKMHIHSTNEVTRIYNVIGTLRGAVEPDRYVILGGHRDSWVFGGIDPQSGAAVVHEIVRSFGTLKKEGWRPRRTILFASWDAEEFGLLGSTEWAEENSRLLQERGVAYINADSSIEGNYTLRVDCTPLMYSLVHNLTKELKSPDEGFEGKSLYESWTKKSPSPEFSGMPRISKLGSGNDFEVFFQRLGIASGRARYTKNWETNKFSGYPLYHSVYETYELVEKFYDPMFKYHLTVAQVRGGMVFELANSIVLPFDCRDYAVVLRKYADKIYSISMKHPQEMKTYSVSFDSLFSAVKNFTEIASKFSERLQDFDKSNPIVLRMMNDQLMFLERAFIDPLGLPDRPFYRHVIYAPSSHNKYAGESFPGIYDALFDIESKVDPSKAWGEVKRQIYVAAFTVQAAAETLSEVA

Compound	Drug uptake [1]	Ki [2] [nM]	Drug uptake [3]	Drug uptake [4]	Drug uptake [5]	Drug uptake [6]	Drug uptake [7]	Drug uptake [8]	Drug uptake [9]
CCN1/C(=C/C=C/C=C/C2=[N+](CCCCCC(=O)NCCCC(=O)NCCCC[C@H](NC(=O)N[C@@H](CCC(=O)O)C(=O)O)C(=O)O)c3ccc4c(S(=O)(=O)[O-])cc(S(=O)(=O)O)cc4c3C2(C)C)C(C)(C)c2c1ccc1c(S(=O)(=O)O)cc(S(=O)(=O)O)cc21	Not Active	0.58	Not Active	Not Active	Not Active	Active	Active	Not Active	Not Active
CCN1/C(=C/C=C/C=C/C2=[N+](CCCCCC(=O)NCCCN(CC(=O)Nc3ccc(C(=O)NCCCC[C@H](NC(=O)N[C@@H](CCC(=O)O)C(=O)O)C(=O)O)cc3)CC(=O)Nc3ccc(C(=O)NCCCC[C@H](NC(=O)N[C@@H](CCC(=O)O)C(=O)O)C(=O)O)cc3)c3ccc4c(S(=O)(=O)[O-])cc(S(=O)(=O)O)cc4c3C2(C)C)C(C)(C)c2c1ccc1c(S(=O)(=O)O)cc(S(=O)(=O)O)cc21	Not Active	0.38	Not Active	Not Active	Not Active	Active	Active	–	–
CCN1/C(=C/C=C/C=C/C2=[N+](CCCCCC(=O)NCCCC(=O)N[C@@H](CCC(=O)NCCCC[C@H](NC(=O)N[C@@H](CCC(=O)O)C(=O)O)C(=O)O)C(=O)NCCCC[C@H](NC(=O)N[C@@H](CCC(=O)O)C(=O)O)C(=O)O)c3ccc4c(S(=O)(=O)[O-])cc(S(=O)(=O)O)cc4c3C2(C)C)C(C)(C)c2c1ccc1c(S(=O)(=O)O)cc(S(=O)(=O)O)cc21	Not Active	0.14	Not Active	Not Active	Not Active	Active	Not Active	Not Active	Not Active
